“And” between values parts separate entries of the source, which are not always exact repeats. Identical values can stand only once. Toxic doses and inconclusive results are not listed. How the source made its calls: active means survival T/C of 150% or more; inactive means T/C below 125% in these data.
Tested on: CD2F1 mice, L1210 leukemia ip, survival T/C
Assay: NCI In Vivo Anticancer Drug Screen. Data for tumor model L1210 Leukemia (intraperitoneal) in CD2F1 (CDF1) mice
Details: endpoint: mean survival time, higher = longer survival
How it was run: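 Tumor-bearing mice (transplanted tumor) were split into treated and vehicle control groups, and the measured endpoint of each treated group was divided by that of its vehicle controls.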

[1] = dose: 12.5 mg/kg/injection, schedule: Q01DX009 (ip), vehicle: saline with Tween-80
[2] = dose: 25.0 mg/kg/injection, schedule: Q01DX009 (ip), vehicle: saline with Tween-80
[3] = dose: 100.0 mg/kg/injection, schedule: Q01DX009 (ip), vehicle: saline with Tween-80
[4] = dose: 200.0 mg/kg/injection, schedule: Q01DX009 (ip), vehicle: saline with Tween-80
[5] = dose: 100.0 mg/kg/injection, schedule: Q01DX001 (ip), vehicle: saline
[6] = dose: 200.0 mg/kg/injection, schedule: Q01DX001 (ip), vehicle: saline
[7] = dose: 400.0 mg/kg/injection, schedule: Q01DX001 (ip), vehicle: saline
[8] = dose: 400.0 mg/kg/injection, schedule: Q01DX009 (ip), vehicle: saline with Tween-80
[9] = dose: 100.0 mg/kg/injection, schedule: Q04DX003 (ip), vehicle: saline with Tween-80
[10] = dose: 200.0 mg/kg/injection, schedule: Q04DX003 (ip), vehicle: saline with Tween-80

Measured: T/C

CN(C)c1nc(N)nc(-c2ccncc2)n1
inactive: dose: 12.0 mg/kg/injection, schedule: Q04DX002 (ip), vehicle: saline 100 % of control | dose: 24.0 mg/kg/injection, schedule: Q04DX002 (ip), vehicle: saline 96 % of control | dose: 48.0 mg/kg/injection, schedule: Q04DX002 (ip), vehicle: saline 92 % of control

Brc1ccc(C[N+]23CN4CN(CN(C4)C2)C3)cc1
inactive: [1] 102 % of control | [2] 102 % of control | dose: 50.0 mg/kg/injection, schedule: Q01DX009 (ip), vehicle: saline with Tween-80 97 % of control | [3] 96 % of control | [4] 94 % of control

CC1CCC2(C)CCC3(C)C4=CCC5C(C)(C)C(O)CCC5(C)C4CCC3(C)C2C1C (stereo not given)
inactive: dose: 200.0 mg/kg/injection, schedule: Q04DX003 (ip), vehicle: saline 89 % of control | dose: 400.0 mg/kg/injection, schedule: Q04DX003 (ip), vehicle: saline 96 % of control

O=S(=O)(O)N=Nc1ccc(OCc2ccccc2)cc1
inactive: [5] 100 % of control | [6] 100 % of control | [7] 97 % of control

O.[Cl][Pt].[S-]CCN1CCCCC1
inactive: dose: 12.5 mg/kg/injection, schedule: Q04DX003 (ip), vehicle: distilled water + Tween-80 96 % of control | dose: 25.0 mg/kg/injection, schedule: Q04DX003 (ip), vehicle: distilled water + Tween-80 100 % of control | dose: 50.0 mg/kg/injection, schedule: Q04DX003 (ip), vehicle: distilled water + Tween-80 98 % of control | dose: 100.0 mg/kg/injection, schedule: Q04DX003 (ip), vehicle: distilled water + Tween-80 90 % of control | dose: 200.0 mg/kg/injection, schedule: Q04DX003 (ip), vehicle: distilled water + Tween-80 93 % of control

COc1ccc(CC2C(=O)NC(C)C(=O)N(C)C3C(=O)N(C)C(Cc4ccc(O)c(c4)Oc4ccc(cc4)C3O)C(=O)NC(C)C(=O)NC(C)C(=O)N2C)cc1 (stereo not given)
inactive: dose: 0.06 mg/kg/injection, schedule: Q01DX009 (ip), vehicle: saline 106 % of control | dose: 0.12 mg/kg/injection, schedule: Q01DX009 (ip), vehicle: saline 113 % of control and 102 % of control and 104 % of control | dose: 0.25 mg/kg/injection, schedule: Q01DX009 (ip), vehicle: Klucel (hydroxypropylcellulose) (HPC) 113 % of control and 110 % of control | dose: 0.25 mg/kg/injection, schedule: Q01DX009 (ip), vehicle: saline 114 % of control and 97 % of control and 108 % of control | dose: 0.5 mg/kg/injection, schedule: Q01DX009 (ip), vehicle: Klucel (hydroxypropylcellulose) (HPC) 113 % of control and 103 % of control | dose: 0.5 mg/kg/injection, schedule: Q01DX009 (ip), vehicle: saline 104 % of control and 109 % of control | dose: 1.0 mg/kg/injection, schedule: Q01DX009 (ip), vehicle: Klucel (hydroxypropylcellulose) (HPC) 113 % of control and 110 % of control | dose: 1.0 mg/kg/injection, schedule: Q01DX009 (ip), vehicle: saline 113 % of control and 114 % of control and 110 % of control | dose: 2.0 mg/kg/injection, schedule: Q01DX009 (ip), vehicle: Klucel (hydroxypropylcellulose) (HPC) 113 % of control and 111 % of control | dose: 2.0 mg/kg/injection, schedule: Q01DX009 (ip), vehicle: saline 116 % of control and 123 % of control | dose: 4.0 mg/kg/injection, schedule: Q01DX009 (ip), vehicle: Klucel (hydroxypropylcellulose) (HPC) 119 % of control | dose: 4.0 mg/kg/injection, schedule: Q01DX009 (ip), vehicle: saline 88 % of control and 96 % of control

COc1ccccc1N=Nc1c(O)n(-c2ccc(Br)cc2)c(=S)n(-c2ccccc2)c1=O
inactive: dose: 100.0 mg/kg/injection, schedule: Q01DX001 (ip), vehicle: saline with Tween-80 93 % of control | dose: 200.0 mg/kg/injection, schedule: Q01DX001 (ip), vehicle: saline with Tween-80 93 % of control | dose: 400.0 mg/kg/injection, schedule: Q01DX001 (ip), vehicle: saline with Tween-80 87 % of control

COc1ccc(NCCOc2ccccc2Br)cc1
inactive: dose: 100.0 mg/kg/injection, schedule: Q04DX003 (ip), vehicle: other 97 % of control | dose: 200.0 mg/kg/injection, schedule: Q04DX003 (ip), vehicle: other 101 % of control | dose: 400.0 mg/kg/injection, schedule: Q04DX003 (ip), vehicle: other 95 % of control

CC1(C)CCCC2(C)C1C(=O)C=CC2(O)CCc1ccoc1.CC12CCc3ccoc3C1CCC1(C(=O)O)C(CO)=CCCC12.[Ag] (stereo not given)
inactive: dose: 75.0 mg/kg/injection, schedule: Q04DX002 (ip), vehicle: other 103 % of control | dose: 150.0 mg/kg/injection, schedule: Q04DX002 (ip), vehicle: other 115 % of control | dose: 300.0 mg/kg/injection, schedule: Q04DX002 (ip), vehicle: other 107 % of control

CCOC(=O)NCC(Cl)(Cl)Cl
inactive: dose: 37.5 mg/kg/injection, schedule: Q01DX009 (ip), vehicle: saline with Tween-80 98 % of control | dose: 75.0 mg/kg/injection, schedule: Q01DX009 (ip), vehicle: saline with Tween-80 98 % of control | dose: 150.0 mg/kg/injection, schedule: Q01DX009 (ip), vehicle: saline with Tween-80 102 % of control

CC(=O)OC(C)C(OC(C)=O)C(OC(C)=O)C(C=O)OC(C)=O (stereo not given)
inactive: dose: 100.0 mg/kg/injection, schedule: Q01DX001 (ip), vehicle: Klucel (hydroxypropylcellulose) (HPC) 101 % of control | dose: 200.0 mg/kg/injection, schedule: Q01DX001 (ip), vehicle: Klucel (hydroxypropylcellulose) (HPC) 101 % of control | dose: 400.0 mg/kg/injection, schedule: Q01DX001 (ip), vehicle: Klucel (hydroxypropylcellulose) (HPC) 101 % of control

ON(C(=S)Nc1ccccc1)c1ccccc1
inactive: [5] 93 % of control | [6] 98 % of control | [7] 97 % of control

CC(=O)OC1CCC2(C)C(CCC3C4CC=C(C(C)=O)C4(C)CCC32)C1 (stereo not given)
inactive: [3] 92 % of control | [4] 92 % of control | [8] 89 % of control

CCCCNC(=O)C1C=C2c3cccc4c3C(CN4)CC2N(C)C1 (stereo not given)
inactive: dose: 50.0 mg/kg/injection, schedule: Q04DX003 (ip), vehicle: saline with Tween-80 88 % of control | [9] 91 % of control | [10] 96 % of control

CCC(=O)N(N=O)c1ccccc1
inactive: dose: 4.7 mg/kg/injection, schedule: Q04DX003 (ip), vehicle: saline 102 % of control | dose: 9.4 mg/kg/injection, schedule: Q04DX003 (ip), vehicle: saline 107 % of control | dose: 18.8 mg/kg/injection, schedule: Q04DX003 (ip), vehicle: saline 102 % of control

NC(=S)NN=C1CCCCC1
inactive: dose: 6.25 mg/kg/injection, schedule: Q01DX009 (ip), vehicle: saline with Tween-80 98 % of control | [1] 96 % of control | [2] 98 % of control

CC(=O)NCCSSCCNC(C)=O
inactive: dose: 50.0 mg/kg/injection, schedule: Q04DX002 (ip), vehicle: saline with Tween-80 91 % of control | dose: 100.0 mg/kg/injection, schedule: Q04DX002 (ip), vehicle: saline with Tween-80 95 % of control | dose: 200.0 mg/kg/injection, schedule: Q04DX002 (ip), vehicle: saline with Tween-80 88 % of control | dose: 400.0 mg/kg/injection, schedule: Q04DX002 (ip), vehicle: saline with Tween-80 109 % of control

OC(c1ccccc1)(c1ccccc1)c1ccc(CN2CCOCC2)cc1
inactive: dose: 12.5 mg/kg/injection, schedule: Q01DX009 (ip), vehicle: other 101 % of control | dose: 25.0 mg/kg/injection, schedule: Q01DX009 (ip), vehicle: other 98 % of control | dose: 50.0 mg/kg/injection, schedule: Q01DX009 (ip), vehicle: other 93 % of control | dose: 100.0 mg/kg/injection, schedule: Q01DX009 (ip), vehicle: other 90 % of control | dose: 200.0 mg/kg/injection, schedule: Q01DX009 (ip), vehicle: other 98 % of control

Cc1cccc(-c2cc(Cl)c3cc(S(=O)(=O)F)ccc3n2)c1
inactive: [3] 94 % of control | [9] 104 % of control | [4] 93 % of control | [10] 101 % of control | [8] 100 % of control | dose: 400.0 mg/kg/injection, schedule: Q04DX003 (ip), vehicle: saline with Tween-80 92 % of control
